Where “and” joins values, the source holds several entries; their conditions need not be identical. Equal entries are not always repeated. Where two headings read alike, the source gives them in different places.
Assay: Plasma concentrations of BVDU, BVU and GEM in patients of the dose finding study (HPLC)
Assay type: in vivo, human
Conditions: for concentration at 0 hr / concentration at 0 h / concentration at 0.5 hr / concentration at 1 hr / concentration at 1.5 hr / concentration at 2 hr / concentration at 3 hr / concentration at 4 hr / concentration at 4 h / concentration at 5 hr / concentration at 9 hr / concentration at 0.5 h / concentration at 1 h / concentration at 1.5 h / concentration at 2 h / concentration at 3 h / concentration at 5 h / concentration at 9 h: human, plasma, po; for concentration at 0 hr / concentration at 0 h / concentration at 0.5 hr / concentration at 1 hr / concentration at 1.5 hr / concentration at 2 hr / concentration at 3 hr / concentration at 4 hr / concentration at 4 h / concentration at 5 hr / concentration at 9 hr / concentration at 0.5 h / concentration at 1 h / concentration at 1.5 h / concentration at 2 h / concentration at 3 h / concentration at 5 h / concentration at 9 h / BVDU plasma concentration, patient: day 1, oral BVDU
Experimental: Dose finding study: 22 Patients with advanced pancreatic adenocarcinoma were eligible for treatment in this single arm study. The mean age was 60 years and 73% of patients were males. One patient without progressive disease was excluded from the study for withdrawal of consent after the first cycle. Of the 21 patients left, 15 were in stage IV and 6 in stage III. BVDU was administered in a combination with GEM. On day 1, on day 8 and on day 15 of each 28-day cycle, BVDU was given together with GEM. On days 2-4, on days 8-11, and on days 15-18 of a 28-day cycle, BVDU was given alone in the recovery phase.
The starting dose of BVDU was 4×125 mg/day (total dose of 6,000 mg per treatment cycle) together with a fixed dose of GEM (1,000 mg/M^2). Subsequent total doses of BVDU per cycle were 7,500 mg, 9,000 mg, 10,500 mg, and 12,000 mg again in four patients per cohort. Dosage levels were administered as follows: First dose level: The starting dose of BVDU was 4×125 mg daily given at approximately 08:00 a.m. (1×125 mg BVDU), 12:00 a.m. (1×125 mg BVDU), 04:00 p.m. (1×125 mg BVDU), and 08:00 p.m. (1×125 mg BVDU). These doses were administered on days 1 to 4, days 8 to 11 and days 15 to 18; Second dose level: 1×250 mg+3×125 mg daily; Third dose level. 2×250 mg+2×125 mg daily; Forth dose level: 3×250 mg+1×125 mg daily; and, Fifth dose level: 4×250 mg daily.
Approximately 1 hour after the 08:00 a.m. BVDU-administration on day 1, day 8 and day 15 of a cycle, the GEM infusion started and GEM was infused for 30 minutes.
Analysis of the concentrations of GEM and BVDU (BVDU) as well as analysis of the concentrations of BVU ((E)-5-(2-bromovinyl)uracil, degradation product of BVDU) in plasma samples: 0.5 ml of plasma spiked with about 0.5 μg of 4-Propyl-2-thiouracil (PTU) as internal standard was extracted with 2.5 ml of methanol-acetonitrile (v/v, 1:9) by vigorous mixing for about 1 min. After centrifugation the supernatant was transferred to a beaker and evaporated to dryness at 50° C. under a gentle stream of nitrogen. The residue was dissolved in 1 ml of the solution used as mobile phase by 10 min treatment in an ultrasonic bath. After centrifugation the clear supernatant was used for HPLC-analysis. The concentrations of GEM and BVDU were calculated using a calibration curve with the respective standard substances. The concentrations of BVU were calculated using the calibration curve of BVDU and the determined response factor. Limits of detection: BVDU 20 ng/ml plasma; GEM 30 ng/ml plasma. Limits of quantification: BVDU 60 ng/ml plasma; GEM 100 ng/ml plasma.
Pharmacokinetic Results BVDU: All measurements were performed within 9 hours. Therefore, only the first three intakes of BVDU-tablets were relevant in this context, and as consequence, in dose groups four and five the intake of tablets was identical. When the dose was doubled from 125 mg to 250 mg, the mean maximum BVDU concentration in plasma increased fivefold from 290 (±152) ng/ml to 1549 (±1058) ng/ml (FIG. 10).

[1] = both sexes, dose level 6000 mg, read-out: BVDU plasma concentration, Mean
[2] = both sexes, dose level 6000 mg, read-out: BVDU plasma concentration, Median
[3] = both sexes, dose level 7500 mg, read-out: BVDU plasma concentration, Mean
[4] = both sexes, dose level 10500 mg, read-out: BVDU plasma concentration, Mean
[5] = both sexes, dose level 10500 mg, read-out: BVDU plasma concentration, Median
[6] = both sexes, dose level 12000 mg, read-out: BVDU plasma concentration, Mean
[7] = both sexes, dose level 12000 mg, read-out: BVDU plasma concentration, Median
[8] = dose level 7500 mg, read-out: BVDU plasma concentration, Median
[9] = dose level 9000 mg, read-out: BVDU plasma concentration, Mean
[10] = dose level 9000 mg, read-out: BVDU plasma concentration, Median

Compound: O=c1[nH]c(=O)n([C@H]2C[C@H](O)[C@@H](CO)O2)cc1/C=C/Br [BVDU, (E)-5-(2-bromovinyl)-2′-deoxyuridine]
- Mean maximum BVDU concentration in plasma (BVDU dose 125 mg): 290 (±152) ng/ml
- Mean maximum BVDU concentration in plasma (BVDU dose 250 mg): 1549 (±1058) ng/ml
- concentration at 0 hr [1]: 0 ng/mL
- concentration at 0 hr [2]: 0 ng/mL
- concentration at 0 h (both sexes, dose level 6000 mg, read-out: BVDU plasma concentration, patient): 0 ng/mL
- concentration at 0.5 hr [1]: 213 ng/mL
- concentration at 0.5 hr [2]: 213 ng/mL
- concentration at 1 hr [1]: 177 ng/mL
- concentration at 1 hr [2]: 109 ng/mL
- concentration at 1.5 hr (both sexes, dose level 6000 mg, 1.5 hr, read-out: BVDU plasma concentration, Mean): 250 ng/mL
- concentration at 1.5 hr (both sexes, dose level 6000 mg, 1.5 hr, read-out: BVDU plasma concentration, Median): 226 ng/mL
- concentration at 2 hr [1]: 231 ng/mL
- concentration at 2 hr [2]: 207 ng/mL
- concentration at 3 hr [1]: 175 ng/mL
- concentration at 3 hr [2]: 133 ng/mL
- concentration at 4 hr (both sexes, dose level 6000 mg, 4.0 hr, read-out: BVDU plasma concentration, Mean): 113 ng/mL
- concentration at 4 hr (both sexes, dose level 6000 mg, 4.0 hr, read-out: BVDU plasma concentration, Median): 122 ng/mL
- concentration at 4 h (both sexes, dose level 6000 mg, 4.0 hr, read-out: BVDU plasma concentration, patient): 126 ng/mL
- concentration at 5 hr [1]: 300 ng/mL
- concentration at 5 hr [2]: 334 ng/mL
- concentration at 9 hr [1]: 391 ng/mL
- concentration at 9 hr [2]: 403 ng/mL
- concentration at 0 hr [3]: 0 ng/mL
- concentration at 0 hr (both sexes, dose level 7500 mg, read-out: BVDU plasma concentration, patient): 0 ng/mL
- concentration at 0.5 hr [3]: 1600 ng/mL
- concentration at 1 hr [3]: 872 ng/mL
- concentration at 1.5 hr (both sexes, dose level 7500 mg, 1.5 hr, read-out: BVDU plasma concentration, Mean): 555 ng/mL
- concentration at 2 hr [3]: 454 ng/mL
- concentration at 3 hr [3]: 302 ng/mL
- concentration at 4 hr (both sexes, dose level 7500 mg, 4.0 hr, read-out: BVDU plasma concentration, Mean): 243 ng/mL
- concentration at 9 hr [3]: 952 ng/mL
- concentration at 0 h [4]: 0 ng/mL
- concentration at 0 h [5]: 0 ng/mL
- concentration at 0 h (both sexes, dose level 10500 mg, read-out: BVDU plasma concentration, patient): 0 ng/mL
- concentration at 0.5 h [4]: 1110 ng/mL
- concentration at 0.5 h [5]: 1150 ng/mL
- concentration at 1 h [4]: 1010 ng/mL
- concentration at 1 h [5]: 1010 ng/mL
- concentration at 1.5 h (both sexes, dose level 10500 mg, 1.5 hr, read-out: BVDU plasma concentration, Mean): 636 ng/mL
- concentration at 1.5 h (both sexes, dose level 10500 mg, 1.5 hr, read-out: BVDU plasma concentration, Median): 566 ng/mL
- concentration at 2 h [4]: 697 ng/mL
- concentration at 2 h [5]: 669 ng/mL
- concentration at 3 h [4]: 453 ng/mL
- concentration at 3 h [5]: 279 ng/mL
- concentration at 4 h (both sexes, dose level 10500 mg, 4.0 hr, read-out: BVDU plasma concentration, Mean): 206 ng/mL
- concentration at 4 h (both sexes, dose level 10500 mg, 4.0 hr, read-out: BVDU plasma concentration, Median): 212 ng/mL
- concentration at 5 h [4]: 400 ng/mL
- concentration at 5 h [5]: 410 ng/mL
- concentration at 9 h [4]: 2070 ng/mL
- concentration at 9 h [5]: 1390 ng/mL
- concentration at 0 h [6]: 0 ng/mL
- concentration at 0 h [7]: 0 ng/mL
- concentration at 0 h (both sexes, dose level 12000 mg, read-out: BVDU plasma concentration, patient): 0 ng/mL
- concentration at 0.5 h [6]: 1490 ng/mL
- concentration at 0.5 h [7]: 672 ng/mL
- concentration at 1 h [6]: 1160 ng/mL
- concentration at 1 h [7]: 1020 ng/mL
- concentration at 1.5 h (both sexes, dose level 12000 mg, 1.5 hr, read-out: BVDU plasma concentration, Mean): 1050 ng/mL
- concentration at 1.5 h (both sexes, dose level 12000 mg, 1.5 hr, read-out: BVDU plasma concentration, Median): 844 ng/mL
- concentration at 1.5 h (both sexes, dose level 12000 mg, 1.5 hr, read-out: BVDU plasma concentration, patient): 844 ng/mL
- concentration at 2 h [6]: 904 ng/mL
- concentration at 2 h [7]: 561 ng/mL
- concentration at 3 h [6]: 738 ng/mL
- concentration at 3 h [7]: 407 ng/mL
- concentration at 4 h (both sexes, dose level 12000 mg, 4.0 hr, read-out: BVDU plasma concentration, Mean): 543 ng/mL
- concentration at 4 h (both sexes, dose level 12000 mg, 4.0 hr, read-out: BVDU plasma concentration, Median): 440 ng/mL
- concentration at 5 h [6]: 2080 ng/mL
- concentration at 5 h [7]: 1070 ng/mL
- concentration at 9 h [6]: 2340 ng/mL
- concentration at 9 h [7]: 1780 ng/mL
- Increase of mean maximum BVDU concentration in plasma (dose doubled from 125 mg to 250 mg): fivefold
- BVDU plasma concentration, patient (dose level 6000 mg, 4.0 hr): 122 ng/mL and 90 ng/mL
- BVDU plasma concentration, patient (dose level 12000 mg, 1.5 hr): 1524 ng/mL and 792 ng/mL
- concentration at 0 h [8]: 0 ng/mL
- concentration at 0.5 h [8]: 1130 ng/mL
- concentration at 1 h [8]: 484 ng/mL
- concentration at 1.5 h (dose level 7500 mg, 1.5 hr, read-out: BVDU plasma concentration, Median): 644 ng/mL
- concentration at 2 h [8]: 403 ng/mL
- concentration at 3 h [8]: 304 ng/mL
- concentration at 4 h (dose level 7500 mg, 4.0 hr, read-out: BVDU plasma concentration, Median): 242 ng/mL
- concentration at 5 h (dose level 7500 mg, read-out: BVDU plasma concentration, Mean): 641 ng/mL
- concentration at 5 h [8]: 776 ng/mL
- concentration at 9 h [8]: 898 ng/mL
- concentration at 0 h [9]: 0 ng/mL
- concentration at 0 h [10]: 0 ng/mL
- concentration at 0 h (dose level 9000 mg, read-out: BVDU plasma concentration, patient): 0 ng/mL
- concentration at 0.5 h [9]: 942 ng/mL
- concentration at 0.5 h [10]: 979 ng/mL
- concentration at 1 h [9]: 784 ng/mL
- concentration at 1 h [10]: 781 ng/mL
- concentration at 1.5 h (dose level 9000 mg, 1.5 hr, read-out: BVDU plasma concentration, Mean): 697 ng/mL
- concentration at 1.5 h (dose level 9000 mg, 1.5 hr, read-out: BVDU plasma concentration, Median): 530 ng/mL
- concentration at 2 h [9]: 701 ng/mL
- concentration at 2 h [10]: 705 ng/mL
- concentration at 3 h [9]: 464 ng/mL
- concentration at 3 h [10]: 441 ng/mL
- concentration at 4 h (dose level 9000 mg, 4.0 hr, read-out: BVDU plasma concentration, Mean): 420 ng/mL
- concentration at 4 h (dose level 9000 mg, 4.0 hr, read-out: BVDU plasma concentration, Median): 378 ng/mL
- concentration at 5 h [9]: 1300 ng/mL
- concentration at 5 h [10]: 1020 ng/mL
- concentration at 9 h [9]: 1510 ng/mL
- concentration at 9 h [10]: 1630 ng/mL
